# According to PubChem BioAssay AID1963970 (Molecular Pharmacology Branch, DTP, NCI, 2024):
# Test system: 931267-113-T-J1-PDC multicell spheroid viability
# Assay: Anticancer human tumor 931267-113-T-J1-PDC patient-derived colon adenocarcinoma cell line growth inhibition [PI3K]
# Conditions: for IC50: curve of first compound; for viability, T/C: stronger effect = lower value
# Method in brief: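 Targeted small molecules plus PI3K inhibitors, half-log dose series from Cmax (default top 10 microM), were applied to heterotypic spheroids of cancer cells with HUVEC and MSCs. Viability indicated growth inhibition.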
# [1] = second compound 0.0316 µM, first compound 0.0316 µM
# [2] = second compound 0.0316 µM, first compound 0.1 µM
# [3] = second compound 0.0316 µM, first compound 0.316 µM
# [4] = second compound 0.0316 µM, first compound 1 µM
# [5] = second compound 0.0316 µM, first compound 3.16 µM
# [6] = second compound 0.0316 µM, first compound 10 µM
# [7] = second compound 0.1 µM, first compound 0.0316 µM
# [8] = second compound 0.1 µM, first compound 0.1 µM
# [9] = second compound 0.1 µM, first compound 0.316 µM
# [10] = second compound 0.1 µM, first compound 1 µM
# [11] = second compound 0.1 µM, first compound 3.16 µM
# [12] = second compound 0.1 µM, first compound 10 µM
# [13] = second compound 0.316 µM, first compound 0.0316 µM
# [14] = second compound 0.316 µM, first compound 0.1 µM
# [15] = second compound 0.316 µM, first compound 0.316 µM
# [16] = second compound 0.316 µM, first compound 1 µM
# [17] = second compound 0.316 µM, first compound 3.16 µM
# [18] = second compound 0.316 µM, first compound 10 µM
# [19] = second compound 1 µM, first compound 0.0316 µM
# [20] = second compound 1 µM, first compound 0.1 µM
# [21] = second compound 1 µM, first compound 0.316 µM
# [22] = second compound 1 µM, first compound 1 µM
# [23] = second compound 1 µM, first compound 3.16 µM
# [24] = second compound 1 µM, first compound 10 µM
# [25] = second compound 3.16 µM, first compound 0.0316 µM
# [26] = second compound 3.16 µM, first compound 0.1 µM
# [27] = second compound 3.16 µM, first compound 0.316 µM
# [28] = second compound 3.16 µM, first compound 1 µM
# [29] = second compound 3.16 µM, first compound 3.16 µM
# [30] = second compound 3.16 µM, first compound 10 µM
# [31] = second compound 10 µM, first compound 0.0316 µM
# [32] = second compound 10 µM, first compound 0.1 µM
# [33] = second compound 10 µM, first compound 0.316 µM
# [34] = second compound 10 µM, first compound 1 µM
# [35] = second compound 10 µM, first compound 3.16 µM
# [36] = second compound 10 µM, first compound 10 µM
# 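Also: viability read 7 days after compound addition.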
compound,measurement,setting,value
C#Cc1c(F)ccc2cc(O)cc(-c3ncc4c(N5CC6CCC(C5)N6)nc(OCC56CCCN5CC(F)C6)nc4c3F)c12 (centres undefined) + CC(Nc1ncnc2nc[nH]c12)c1cc2cccc(Cl)c2c(=O)n1-c1ccccc1,IC50,second compound 0.0316 µM,631 nM
same,IC50,second compound 0.1 µM,573 nM
same,IC50,second compound 0.316 µM,664 nM
same,IC50,second compound 1 µM,677 nM
same,IC50,second compound 3.16 µM,378 nM
same,IC50,second compound 10 µM,222 nM
same,"viability, T/C",[1],96.4%
same,"viability, T/C",[2],74%
same,"viability, T/C",[3],57.6%
same,"viability, T/C",[4],45.7%
same,"viability, T/C",[5],32.6%
same,"viability, T/C",[6],22.5%
same,"viability, T/C",[7],105%
same,"viability, T/C",[8],78.1%
same,"viability, T/C",[9],56.6%
same,"viability, T/C",[10],45.4%
same,"viability, T/C",[11],29.5%
same,"viability, T/C",[12],24.5%
same,"viability, T/C",[13],90.9%
same,"viability, T/C",[14],72.9%
same,"viability, T/C",[15],61.4%
same,"viability, T/C",[16],43.4%
same,"viability, T/C",[17],33.6%
same,"viability, T/C",[18],23.2%
same,"viability, T/C",[19],89.1%
same,"viability, T/C",[20],78.6%
same,"viability, T/C",[21],57.9%
same,"viability, T/C",[22],42.1%
same,"viability, T/C",[23],37.3%
same,"viability, T/C",[24],21.2%
same,"viability, T/C",[25],87.3%
same,"viability, T/C",[26],70.3%
same,"viability, T/C",[27],52.1%
same,"viability, T/C",[28],36.1%
same,"viability, T/C",[29],28.4%
same,"viability, T/C",[30],17.6%
same,"viability, T/C",[31],91.1%
same,"viability, T/C",[32],63.1%
same,"viability, T/C",[33],45%
same,"viability, T/C",[34],27.1%
same,"viability, T/C",[35],22.7%
same,"viability, T/C",[36],12%
CC1(C)CCC(Nc2ncc(C(F)(F)F)c(-c3c[nH]c4c(P(C)(C)=O)c(C#N)ccc34)n2)CN1 (centres undefined) + CC(Nc1ncnc2nc[nH]c12)c1cc2cccc(Cl)c2c(=O)n1-c1ccccc1,IC50,second compound 0.0316 µM,> 10000 nM
same,IC50,second compound 0.1 µM,> 10000 nM
same,IC50,second compound 0.316 µM,> 10000 nM
same,IC50,second compound 1 µM,> 10000 nM
same,IC50,second compound 3.16 µM,> 10000 nM
same,IC50,second compound 10 µM,> 10000 nM
same,"viability, T/C",[1],107%
same,"viability, T/C",[2],105%
same,"viability, T/C",[3],97%
same,"viability, T/C",[4],88.5%
same,"viability, T/C",[5],90.8%
same,"viability, T/C",[6],74.1%
same,"viability, T/C",[7],114%
same,"viability, T/C",[8],105%
same,"viability, T/C",[9],93.6%
same,"viability, T/C",[10],93.1%
same,"viability, T/C",[11],91.5%
same,"viability, T/C",[12],81.6%
same,"viability, T/C",[13],104%
same,"viability, T/C",[14],104%
same,"viability, T/C",[15],103%
same,"viability, T/C",[16],92.8%
same,"viability, T/C",[17],95.1%
same,"viability, T/C",[18],67.4%
same,"viability, T/C",[19],106%
same,"viability, T/C",[20],100%
same,"viability, T/C",[21],94.6%
same,"viability, T/C",[22],82.7%
same,"viability, T/C",[23],96.5%
same,"viability, T/C",[24],69.5%
same,"viability, T/C",[25],106%
same,"viability, T/C",[26],100%
same,"viability, T/C",[27],89.4%
same,"viability, T/C",[28],87%
same,"viability, T/C",[29],82.6%
same,"viability, T/C",[30],69.5%
same,"viability, T/C",[31],92.2%
same,"viability, T/C",[32],97%
same,"viability, T/C",[33],80.1%
same,"viability, T/C",[34],82.5%
same,"viability, T/C",[35],83.1%
same,"viability, T/C",[36],56.2%
